A short description of the data set: Open-label, three-way, sequential, cross-over pharmacokinetic interaction study, plasma, non-compartmental analysis. Format: in vivo, human (healthy Thai adults). Conditions: for Tmax / AUC(0-t) / Cmax / AUC0–12h / AUC(0-inf) / Vd/F / half-life: plasma; for Tmax / AUC(0-t) / Cmax / AUC0–12h / AUC(0-inf) / Vd/F / half-life / CL/F: median (95 % CI); for Vd/F: read-out: Vz/F; for half-life: read-out: t1/2z (converted); for t1/2z GMR (90 % CI): geometric mean ratio. As for the experimental part: This was an open-label, three-way, sequential, cross-over, pharmacokinetic study in healthy adult volunteers. […] Written informed consent for study participation was obtained from each subject before study. […] Consenting adults were screened for eligibility and a physical examination, electrocardiogram (ECG), and laboratory safety tests (haematology, biochemistry, urinalysis, and pregnancy status) were performed. Figure 1 summarizes the study design. The pharmacokinetic sampling was performed sequentially on three occasions. […] Ltd., China). Mefloquine doses were given as three tablets on Day 1 and two tablets on Day 2 (250 mg mefloquine per tablet, manufactured by Atlantic Pharmaceutical Ltd., China). There was a 2-months wash-out period between Period 1 and Period 2. Period 2: subjects received oral doses of LPV/r (400/100 mg), twice daily, for 14 days (27 doses). There was no washout between Period 2 and Period 3. […] Immediately after collection, all blood samples were centrifuged (1200×g, 10 min) and the plasma samples were stored at -80 °C until analysis. […] University. […] An Agilent 1260 LC system (Agilent Technologies, CA, USA) coupled with an API 5000 triple quadrupole mass spectrometer (Applied Biosystems/MDS SCIEX, Foster City, USA), with a TurboVTM ionization source (TIS) interface operated in the positive ion mode, was used for the multiple reaction monitoring LC-MS/MS analysis. […] Nitrogen gas was supplied from an AB-3G (Peak Scientific, Inchinnan, UK). […] Chromatographic separation was performed using an […] XDB C18 column (5 μm, 4.6 mm × 150 mm; Thermo Fisher Scientific, MA, USA) protected with an Eclipse XDB-C8 guard column (Thermo Electron Corporation, MA, USA). The gradient mobile phase consisted of a mixture of 10 mM ammonium acetate with 0.1 % glacial acetic acid and acetonitrile running at a flow rate of 0.7 mL/min. Total run time was 12 min. […] Measurement of plasma concentrations of mefloquine was performed using high performance liquid chromatography (HPLC) according to the method of Karbwang et al. with modifications. Chromatographic separation was performed on a Hypersil ODS column (5 μm, 4.6 mm × 250 mm; Thermo Fisher Scientific, MA, USA) protected with an Eclipse XDB-C8 guard column (Thermo Electron Corporation, MA, USA). […] The UV detector was set at the wavelength of 220 nm. […] This laboratory participates in the NIAID Clinical Pharmacology Quality Assurance Programme Proficiency Testing. Pharmacokinetic parameters were determined using a non-compartmental analysis using WinNonLin software (version 6.3, […], USA). […] The Cmax (maximum concentration); tmax (time of maximum concentration) were determined by direct inspection of the plasma concentration-time data. […] The extrapolated AUC from the last sampling time to infinity was estimated from Ct/elimination rate constant (lz). lz was calculated from at least five concentration-time points of elimination phase. Apparent oral clearance (CL/F) was calculated as dose/AUC0-∞. Volume of distribution (Vz/F) was calculated as CL/F/lz, and the terminal half-life (t1/2z) was calculated as 0.693/lz. […] Statistical analysis of the data was performed using SPSS version 16.0 (Gorichem, The Netherlands). Pharmacokinetic parameters are presented as median and 95 % confidence intervals (95 % CI). […] Comparison of the frequency of subjects with adverse events between the two groups was performed using a Chi-square test. Statistical significance level was set at a = 0.05 for all tests.

The mark [1] stands for this setting: both sexes, human, oral, 3-day artesunate-mefloquine with LPV/r 400/100 mg twice a day (Period 3), read-out: tmax.
The mark [2] stands for this setting: both sexes, human, oral, 3-day artesunate-mefloquine with LPV/r (Period 3), read-out: Cmax.
Setting [3] is: both sexes, human, po, 3-day artesunate-mefloquine alone (Period 1), oral, read-out: Cmax.
The mark [4] stands for this setting: both sexes, human, 3-day artesunate-mefloquine alone (Period 1), oral, read-out: tmax.
Setting [5] is: in the presence of LPV/r vs alone.
The mark [6] stands for this setting: LPV/r 400/100 mg twice daily alone (Period 2).
Setting [7] is: LPV/r with 3-day artesunate-mefloquine (Period 3).
The mark [8] stands for this setting: both sexes, human, oral, LPV/r 400/100 mg twice daily alone (Period 2), read-out: Cmax.
The mark [9] stands for this setting: both sexes, human, oral, LPV/r 400/100 mg twice daily alone (Period 2).
The mark [10] stands for this setting: both sexes, human, oral, LPV/r with 3-day artesunate-mefloquine (Period 3), read-out: AUC0–12h.
Setting [11] is: both sexes, human, oral, LPV/r with 3-day artesunate-mefloquine (Period 3).
[12] abbreviates: in the presence of artesunate-mefloquine vs LPV/r alone.
Where [13] appears, read: with artesunate-mefloquine vs LPV/r alone.
Setting [14] is: 750 and 500 mg 24 h apart vs previous study in healthy Thai subjects, 750 and 500 mg 6 h apart (ref 47, 48).
[15] abbreviates: both sexes, human, oral, 3-day artesunate-mefloquine alone (Period 1).
[16] abbreviates: both sexes, human, oral, 3-day artesunate-mefloquine with LPV/r (Period 3).

The term AUC(0-inf) denotes total exposure, with the tail of the curve extrapolated. Low readings indicate low exposure, high ones high exposure.

Several values for one entry are separate records, joined by “and”; a condition that tells them apart may be missing. Identical values can stand only once. Like-named read-outs stand apart in the source and are kept apart here.

As to `C[C@H]1[C@H](OC(=O)CCC(=O)O)O[C@@H]2O[C@@]3(C)CC[C@H]4[C@H](C)CC[C@@H]1[C@@]24OO3` [Artesunate, artesunate], the Tmax was determined as 1 h under setting [1] and 1 h under setting [4]. Further, the AUC(0-t) by setting is: (both sexes, human, oral, 3-day artesunate-mefloquine alone (Period 1), read-out: AUC0–24h) 0.2 µg·h/mL; (both sexes, human, oral, 3-day artesunate-mefloquine with LPV/r (Period 3), read-out: AUC0–24h) 0.24 µg·h/mL. Further, the Cmax stood at 140 ng/mL under setting [2] and 110 ng/mL under setting [3]. In addition, the “90 % CI of the GMR of AUC0−24h vs bioequivalent range of 0.8-1.25” value (combination vs alone) is recorded as “outside the acceptable bioequivalent range”. Further, under setting [5], the “increase in Cmax and systemic exposure” value is 45–80%. Moreover, the “inter-individual variability in AUC0−24h” value (in vivo) was 54.4%.
In the case of `Cc1cccc(C)c1OCC(=O)N[C@@H](Cc1ccccc1)[C@@H](O)C[C@H](Cc1ccccc1)NC(=O)[C@H](C(C)C)N1CCCNC1=O` [Lopinavir, lopinavir], under setting [6], the “AUC0–12h” value is listed as 103.32 (82.62, 124.01) μg h/mL and the Tmax is recorded as 4.0 (3.1, 4.8) h. Besides, under setting [7], the Cmax is 9.62 (7.99, 11.24) μg/mL. Besides, the Cmax under setting [8] stood at 12400 ng/mL. Besides, under setting [9], the AUC(0-inf) came out at 229 µg·h/mL, the Vd/F stood at 0.45 L/kg and the half-life is 9.8 h. Further, the AUC(0-t) under setting [10] turned out to be 90.5 µg·h/mL. Under setting [11], the AUC(0-inf) is 130 µg·h/mL, the Vd/F came to 0.53 L/kg and the half-life was 6.6 h. Further, the “90 % CI of the GMR of Cmax vs bioequivalent range of 0.8-1.25” value (“90 % CI of the GMR of Cmax” below) (combination vs alone) was “outside the acceptable bioequivalent range”. Moreover, under setting [12], the “decrease in Cmax” value is 22% and 22.1%; the “increase in CL/F” value is 75.4%. For the same molecule, where the note is “in vivo”, the “extrapolated AUC from the last blood sampling time to infinity (AUCt−∞)” value (“extrapolated AUC” below) is “less than 5%” and the “inter-individual variability of plasma concentrations” value fell in the range of 50.6 to 127.6%. In addition, under setting [13], the “t1/2z GMR (90 % CI)” value is 0.71 (0.45, 1.13).
Take `OC(c1cc(C(F)(F)F)nc2c(C(F)(F)F)cccc12)C1CCCCN1` (centres unmarked) [Mefloquine, mefloquine]: the CL/F (3-day artesunate-mefloquine alone (Period 1)) was 1.08 (0.78, 1.37) L/h. Also, for the setting “3-day artesunate-mefloquine with LPV/r (Period 3)”, the CL/F is recorded as 1.67 (1.03, 2.30) L/h. Also, under setting [14], the “lower CL/F relative to previous study” value was determined as 33.4% and the “smaller Vz/F relative to previous study” value is 40%. Also, the Tmax under setting [1] came to 33 h. For the same molecule, for the setting “both sexes, human, oral, 3-day artesunate-mefloquine alone (Period 1), read-out: AUC0–48h”, the AUC(0-t) came out at 952 µg·h/mL. Moreover, under setting [15], the half-life was 344 h, the AUC(0-inf) came to 1160 µg·h/mL and the Vd/F was 9.24 L/kg. Further, the AUC(0-t) (both sexes, human, oral, 3-day artesunate-mefloquine with LPV/r (Period 3), read-out: AUC0–48h) turned out to be 678 µg·h/mL. Under setting [2], the Cmax worked out at 2340 ng/mL. Besides, under setting [16], the half-life was 336 h, the AUC(0-inf) worked out at 751 µg·h/mL and the Vd/F is 12.8 L/kg. Also, under setting [3], the Cmax was 2900 ng/mL. The Tmax under setting [4] is 33 h. For the same molecule, under “combination vs alone”, the “90 % CI of the GMR of AUC0−168h vs bioequivalent range of 0.8-1.25” value is “outside the acceptable bioequivalent range”, the “90 % CI of the GMR of AUC0−∞ vs bioequivalent range of 0.8-1.25” value is “outside the acceptable bioequivalent range” and the “90 % CI of the GMR of Cmax” value is recorded as “outside the acceptable bioequivalent range”. Moreover, under setting [5], the “decrease in AUC0−48h” value is 28.7%, the “decrease in AUC0−168h” value came to 37.1%, the “decrease in AUC0−∞” value amounted to 35.2% and the “decrease in Cmax” value worked out at 19.3%. For the same molecule, under setting [5], the “increase in CL/F” value is given as 54.6%; the “increase in Vz/F” value worked out at 37.9%; the “reduction in Cmax and systemic exposure” value is 19–37%. In addition, under “in vivo”, the “extrapolated AUC” value is on record as “less than 10%” and the “inter-individual variability of plasma concentrations” value is 34.2 to 96.9%. Also, the “t1/2z GMR (90 % CI)” value (with LPV/r vs alone) is reported as 1.14 (0.90, 1.45).
With `CC(C)c1nc(CN(C)C(=O)N[C@H](C(=O)N[C@@H](Cc2ccccc2)C[C@H](O)[C@H](Cc2ccccc2)NC(=O)OCc2cncs2)C(C)C)cs1` [Ritonavir, ritonavir], under setting [6], the “AUC0–12h” value is listed as 8.11 (5.71, 10.50) μg h/mL; the Tmax is recorded as 4.0 (3.1, 4.8) h; the CL/F is 9.27 (4.74, 13.80) L/h. Also, under setting [7], the Tmax is reported as 4.0 (3.1, 4.8) h and the CL/F is reported as 21.24 (8.71, 33.77) L/h. Under setting [8], the Cmax worked out at 1530 ng/mL. Under setting [9], the AUC(0-inf) worked out at 10.8 µg·h/mL, the Vd/F was 0.97 L/kg and the half-life was 4.3 h. Moreover, the AUC(0-t) under setting [10] was found to be 4.49 µg·h/mL. Besides, for the setting “both sexes, human, oral, LPV/r with 3-day artesunate-mefloquine (Period 3), read-out: Cmax”, the Cmax was found to be 680 ng/mL. Moreover, under setting [11], the AUC(0-inf) amounted to 4.71 µg·h/mL, the Vd/F was determined as 1.75 L/kg and the half-life is 3.7 h. Moreover, under “combination vs alone”, the “90 % CI of the GMR of AUC0−12h vs bioequivalent range of 0.8-1.25” value is reported as “outside the acceptable bioequivalent range”, the “90 % CI of the GMR of AUC0−∞ vs bioequivalent range of 0.8-1.25” value is given as “outside the acceptable bioequivalent range” and the “90 % CI of the GMR of Cmax” value was “outside the acceptable bioequivalent range”. Under setting [12], the “decrease in AUC0–12h” value amounted to 44.6%, the “decrease in AUC0−∞” value amounted to 56.3%, the “decrease in Cmax” value worked out at 54.9% and the “increase in CL/F” value was 129.1%. Further, under setting [12], the “increase in Vz/F” value worked out at 80.4%. Also, for the setting “in vivo”, the “extrapolated AUC” value is “less than 5%” and the “inter-individual variability of plasma concentrations” value was 21.3 to 62.9%. Under setting [13], the “t1/2z GMR (90 % CI)” value was 0.87 (0.68, 1.11).

The values are drawn from publication PMC4600319 (Malaria Journal, 2015).
